In the NIST ThermoML archive (doi:10.1016/j.jct.2017.11.003):
Numbers after ± are expanded uncertainties.

Assays:
[1] = xn = mol fraction of the nth substance listed; conditions: 100 kPa, Liquid; for speed of sound: Frequency=2 MHz, Linear variable-path acoustic interferometer; for mass density: Vibrating tube method
[2] = 100 kPa, Liquid; for speed of sound: Frequency=2 MHz, Linear variable-path acoustic interferometer; for mass density: Vibrating tube method

**Q.** With ClCCCl [1,2-dichloroethane] + CCCCCCCCCO as the compound, how does the speed of sound ([1]; 293.15 K, x1 = 1) read?
**A.** The speed of sound was 1212.5 ± 3.9 m/s.

**Q.** And the mass density ([1]; 293.15 K, x1 = 1)?
**A.** The mass density was 1253 ± 4 kg/m3.

**Q.** And the speed of sound ([1]; 298.15 K, x1 = 1)?
**A.** The speed of sound was 1194.2 ± 3.9 m/s.

**Q.** And the mass density ([1]; 298.15 K, x1 = 1)?
**A.** The mass density was 1246 ± 4 kg/m3.

**Q.** What about the speed of sound ([1]; 303.15 K, x1 = 1) of the same compound?
**A.** Its speed of sound is 1174.1 ± 3.9 m/s.

**Q.** And the mass density ([1]; 303.15 K, x1 = 1)?
**A.** Its mass density is 1238 ± 4 kg/m3.

**Q.** What about the speed of sound ([1]; 308.15 K, x1 = 1) of the same compound?
**A.** The speed of sound was 1155.6 ± 3.9 m/s.

**Q.** And the mass density ([1]; 308.15 K, x1 = 1)?
**A.** Its mass density is 1231 ± 4 kg/m3.

**Q.** Which speed of sound ([1]; 293.15 K, x2 = 0) does the source give for CCCCCCCCCO [nonan-1-ol] + Cc1cccc(Cl)c1 here?
**A.** The speed of sound was 1380.5 ± 4 m/s.

**Q.** And the mass density ([1]; 293.15 K, x2 = 0)?
**A.** The mass density was 828 ± 4 kg/m3.

**Q.** And the speed of sound ([1]; 298.15 K, x2 = 0)?
**A.** Its speed of sound is 1364.7 ± 4 m/s.

**Q.** What about the mass density ([1]; 298.15 K, x2 = 0) of the same compound?
**A.** Its mass density is 824 ± 4 kg/m3.

**Q.** And the speed of sound ([1]; 303.15 K, x2 = 0)?
**A.** Its speed of sound is 1348.1 ± 4 m/s.

**Q.** And the mass density ([1]; 303.15 K, x2 = 0)?
**A.** The mass density was 821 ± 4 kg/m3.

**Q.** And the speed of sound ([1]; 308.15 K, x2 = 0)?
**A.** The speed of sound was 1330.5 ± 4 m/s.

**Q.** And the mass density ([1]; 308.15 K, x2 = 0)?
**A.** The mass density was 818 ± 4 kg/m3.

**Q.** What does the source list for CCCCCCCCCO [nonan-1-ol] + Cc1ccc(Cl)cc1?
**A.** speed of sound ([1]; 293.15 K, x2 = 0): 1380.5 ± 4 m/s; mass density ([1]; 293.15 K, x2 = 0): 828 ± 4 kg/m3; speed of sound ([1]; 298.15 K, x2 = 0): 1364.7 ± 4 m/s; mass density ([1]; 298.15 K, x2 = 0): 824 ± 4 kg/m3; speed of sound ([1]; 303.15 K, x2 = 0): 1348.1 ± 4 m/s; mass density ([1]; 303.15 K, x2 = 0): 821 ± 4 kg/m3; speed of sound ([1]; 308.15 K, x2 = 0): 1330.5 ± 4 m/s; mass density ([1]; 308.15 K, x2 = 0): 818 ± 4 kg/m3

**Q.** Which speed of sound ([2]; 293.15 K) does the source give for Cc1ccccc1Cl [2-chlorotoluene] here?
**A.** The speed of sound was 1317 ± 4 m/s.

**Q.** And the mass density ([2]; 293.15 K)?
**A.** The mass density was 1082 ± 4 kg/m3.

**Q.** And the speed of sound ([2]; 298.15 K)?
**A.** Its speed of sound is 1299.7 ± 4 m/s.

**Q.** What about the mass density ([2]; 298.15 K) of the same compound?
**A.** Its mass density is 1077 ± 4 kg/m3.

**Q.** What about the speed of sound ([2]; 303.15 K) of the same compound?
**A.** Its speed of sound is 1283.9 ± 4 m/s.

**Q.** And the mass density ([2]; 303.15 K)?
**A.** The mass density was 1073 ± 4 kg/m3.

**Q.** And the speed of sound ([2]; 308.15 K)?
**A.** Its speed of sound is 1265.8 ± 4 m/s.

**Q.** What about the mass density ([2]; 308.15 K) of the same compound?
**A.** Its mass density is 1068 ± 4 kg/m3.

**Q.** For ClCCCl [1,2-dichloroethane], which speed of sound ([2]; 293.15 K) is on record?
**A.** The speed of sound was 1212.5 ± 3.9 m/s.

**Q.** And the mass density ([2]; 293.15 K)?
**A.** The mass density was 1253 ± 4 kg/m3.

**Q.** What about the speed of sound ([2]; 298.15 K) of the same compound?
**A.** Its speed of sound is 1194.2 ± 3.9 m/s.

**Q.** What about the mass density ([2]; 298.15 K) of the same compound?
**A.** The mass density was 1246 ± 4 kg/m3.

**Q.** What about the speed of sound ([2]; 303.15 K) of the same compound?
**A.** The speed of sound was 1174.1 ± 3.9 m/s.

**Q.** What about the mass density ([2]; 303.15 K) of the same compound?
**A.** The mass density was 1238 ± 4 kg/m3.

**Q.** What about the speed of sound ([2]; 308.15 K) of the same compound?
**A.** Its speed of sound is 1155.6 ± 3.9 m/s.

**Q.** And the mass density ([2]; 308.15 K)?
**A.** The mass density was 1231 ± 4 kg/m3.

**Q.** For Cc1cccc(Cl)c1 [3-chlorotoluene], which speed of sound ([2]; 293.15 K) is on record?
**A.** The speed of sound was 1313.8 ± 4 m/s.

**Q.** What about the mass density ([2]; 293.15 K) of the same compound?
**A.** Its mass density is 1072 ± 4 kg/m3.

**Q.** What about the speed of sound ([2]; 298.15 K) of the same compound?
**A.** Its speed of sound is 1296.5 ± 4 m/s.

**Q.** What about the mass density ([2]; 298.15 K) of the same compound?
**A.** The mass density was 1067 ± 4 kg/m3.

**Q.** And the speed of sound ([2]; 303.15 K)?
**A.** The speed of sound was 1279.5 ± 4 m/s.

**Q.** What about the mass density ([2]; 303.15 K) of the same compound?
**A.** The mass density was 1063 ± 4 kg/m3.

**Q.** And the speed of sound ([2]; 308.15 K)?
**A.** The speed of sound was 1261.2 ± 4 m/s.

**Q.** And the mass density ([2]; 308.15 K)?
**A.** Its mass density is 1058 ± 4 kg/m3.

**Q.** Which results are given for CCCCCCCCCO [nonan-1-ol] + Cc1ccccc1Cl?
**A.** speed of sound ([1]; 293.15 K, x2 = 0): 1380.5 ± 4 m/s; mass density ([1]; 293.15 K, x2 = 0): 828 ± 4 kg/m3; speed of sound ([1]; 298.15 K, x2 = 0): 1364.7 ± 4 m/s; mass density ([1]; 298.15 K, x2 = 0): 824 ± 4 kg/m3; speed of sound ([1]; 303.15 K, x2 = 0): 1348.1 ± 4 m/s; mass density ([1]; 303.15 K, x2 = 0): 821 ± 4 kg/m3; speed of sound ([1]; 308.15 K, x2 = 0): 1330.5 ± 4 m/s; mass density ([1]; 308.15 K, x2 = 0): 818 ± 4 kg/m3

**Q.** With Cc1ccc(Cl)cc1 [4-chlorotoluene] as the compound, how does the speed of sound ([2]; 293.15 K) read?
**A.** The speed of sound was 1306.4 ± 4 m/s.

**Q.** And the mass density ([2]; 293.15 K)?
**A.** The mass density was 1069 ± 4 kg/m3.

**Q.** And the speed of sound ([2]; 298.15 K)?
**A.** The speed of sound was 1288.2 ± 4 m/s.

**Q.** What about the mass density ([2]; 298.15 K) of the same compound?
**A.** The mass density was 1065 ± 4 kg/m3.

**Q.** What about the speed of sound ([2]; 303.15 K) of the same compound?
**A.** Its speed of sound is 1270 ± 3.9 m/s.

**Q.** What about the mass density ([2]; 303.15 K) of the same compound?
**A.** Its mass density is 1060 ± 4 kg/m3.

**Q.** What about the speed of sound ([2]; 308.15 K) of the same compound?
**A.** Its speed of sound is 1252.1 ± 3.9 m/s.

**Q.** What about the mass density ([2]; 308.15 K) of the same compound?
**A.** Its mass density is 1054 ± 4 kg/m3.

**Q.** Which results are given for CCCCCCCCCO [nonan-1-ol]?
**A.** speed of sound ([2]; 293.15 K): 1380.5 ± 4 m/s; mass density ([2]; 293.15 K): 828 ± 4 kg/m3; speed of sound ([2]; 298.15 K): 1364.7 ± 4 m/s; mass density ([2]; 298.15 K): 824 ± 4 kg/m3; speed of sound ([2]; 303.15 K): 1348.1 ± 4 m/s; mass density ([2]; 303.15 K): 821 ± 4 kg/m3; speed of sound ([2]; 308.15 K): 1330.5 ± 4 m/s; mass density ([2]; 308.15 K): 818 ± 4 kg/m3
